As usually defined, the IC50 is the concentration that gives 50% inhibition. Low values mean greater potency in that assay, high ones weaker potency in that assay.

In test [1] the target is T1, Prostaglandin G/H synthase 1 (Ovis aries, UniProt P05979).
T1 sequence (P05979 whole entry): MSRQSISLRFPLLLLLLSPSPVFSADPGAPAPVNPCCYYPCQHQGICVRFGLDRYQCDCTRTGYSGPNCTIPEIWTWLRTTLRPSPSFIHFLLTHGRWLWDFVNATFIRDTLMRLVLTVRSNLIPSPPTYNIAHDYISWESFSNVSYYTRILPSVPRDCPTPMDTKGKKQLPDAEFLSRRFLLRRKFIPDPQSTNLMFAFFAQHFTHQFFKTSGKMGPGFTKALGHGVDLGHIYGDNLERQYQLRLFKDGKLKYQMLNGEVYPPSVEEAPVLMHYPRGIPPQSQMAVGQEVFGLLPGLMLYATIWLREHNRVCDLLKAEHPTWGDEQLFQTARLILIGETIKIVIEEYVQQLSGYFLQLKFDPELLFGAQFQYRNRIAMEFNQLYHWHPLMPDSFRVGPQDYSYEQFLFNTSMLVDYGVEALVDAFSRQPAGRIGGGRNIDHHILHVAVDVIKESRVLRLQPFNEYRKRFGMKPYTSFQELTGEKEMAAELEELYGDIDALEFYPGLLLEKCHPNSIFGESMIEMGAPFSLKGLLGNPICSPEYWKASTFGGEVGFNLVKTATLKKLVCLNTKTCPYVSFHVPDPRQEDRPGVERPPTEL
The test is described as follows: Inhibition of ovine COX1 by enzyme immunoassay.

The target of test [2] is T2, Prostaglandin G/H synthase 2 (Ovis aries, UniProt P79208).
T2 sequence (P79208 whole entry): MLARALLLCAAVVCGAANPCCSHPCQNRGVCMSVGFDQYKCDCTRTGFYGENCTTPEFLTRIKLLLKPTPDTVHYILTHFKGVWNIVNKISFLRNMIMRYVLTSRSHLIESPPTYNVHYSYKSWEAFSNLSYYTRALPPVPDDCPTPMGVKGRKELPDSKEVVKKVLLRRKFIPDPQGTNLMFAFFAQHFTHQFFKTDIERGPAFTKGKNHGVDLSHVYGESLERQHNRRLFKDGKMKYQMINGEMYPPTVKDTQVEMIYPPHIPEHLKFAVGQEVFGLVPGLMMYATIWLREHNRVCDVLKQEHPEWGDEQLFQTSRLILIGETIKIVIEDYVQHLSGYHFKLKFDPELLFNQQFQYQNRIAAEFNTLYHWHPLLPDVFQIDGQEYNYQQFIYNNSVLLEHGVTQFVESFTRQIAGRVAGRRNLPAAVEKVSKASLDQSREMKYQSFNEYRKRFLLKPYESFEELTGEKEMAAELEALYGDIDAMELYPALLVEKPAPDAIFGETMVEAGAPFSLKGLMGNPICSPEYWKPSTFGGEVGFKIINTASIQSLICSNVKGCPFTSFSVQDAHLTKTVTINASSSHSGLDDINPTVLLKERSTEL
Kind of test: Inhibition of ovine COX2 by enzyme immunoassay.

Test [3] is filed under the species Ovis aries. The test is described as follows: Selectivity index, ratio of IC50 for ovine COX1 to IC50 for ovine COX2.

Some results are limits rather than exact numbers.

Take `CS(=O)(=O)Nc1ccc(C2=C(c3ccc(F)cc3)C(=O)OC2)cc1`: the results for the IC50 in test [1] and in test [2] were 10 µM and 3.2 µM, respectively. In test [3], the COX1/COX2 IC50 selectivity index was found to be 3.1.

For the compound `COc1ccc(C2=C(c3ccc(NS(C)(=O)=O)cc3)COC2=O)cc1`, the values for the IC50 in test [1] and in test [2] were > 100 µM and 31.5 µM, respectively. Also, in test [3], the COX1/COX2 IC50 selectivity index is > 31.

On to `CS(=O)(=O)Nc1ccc(C2=C(c3ccc(Cl)cc3)C(=O)OC2)cc1`, for which the IC50 is 31.5 µM in test [1] and 0.8 µM in test [2]. Further, the COX1/COX2 IC50 selectivity index in test [3] was 39.4.

For `CS(=O)(=O)Nc1ccc(C2=C(c3ccccc3)C(=O)OC2)cc1`, the values for the IC50 in test [1] and in test [2] were 31.6 µM and 1.7 µM, respectively. Besides, the COX1/COX2 IC50 selectivity index in test [3] was determined as 18.5.

Consider `Cc1ccc(C2=C(c3ccc(NS(C)(=O)=O)cc3)COC2=O)cc1`, for which the IC50 in test [1] is > 100 µM; in test [2] it was 0.9 µM. Also, the COX1/COX2 IC50 selectivity index in test [3] was > 111.

Take `CS(=O)(=O)Nc1ccc(C2=C(c3ccc(Br)cc3)C(=O)OC2)cc1`: the IC50 was 35.5 µM in test [1] and 3.2 µM in test [2]. In test [3], the COX1/COX2 IC50 selectivity index amounted to 11.1.

(Values after ChEMBL document CHEMBL1144527 (Bioorg Med Chem, 2007).)
